Measured values taken from ChEMBL document CHEMBL1268812, “Piperidine-based renin inhibitors: upper chain optimization” (Bioorg Med Chem Lett, 2010).

Columns and labels:
Details in all cases: rat, po, 3 mg/kg
[1] = in vivo
Description: Half life in transgenic rat harboring human angiotensinogen and human renin gene at 3 mg/kg, po

[2] = in vivo; remark: listed apart in the source
Description: Clearance in transgenic rat harboring human angiotensinogen and human renin gene at 3 mg/kg, po

[3] = in vivo; remark: listed apart in the source

**Q.** Which half-life [1] does the source give for `COCCCc1ccc(Cl)c(CN(C(=O)[C@H]2CNCC[C@@H]2c2ccc(OCCOc3c(Cl)cc(C)cc3Cl)nc2)C2CC2)c1` here?
**A.** 3.6 h

**Q.** What about the CL/F [2] of the same compound?
**A.** 29 mL/min/kg

**Q.** What about the bioavailability [3] of the same compound?
**A.** 28%

**Q.** With `COCCc1ccc(Cl)c(CN(C(=O)[C@H]2CNCC[C@@H]2c2ccc(OCCOc3c(Cl)cc(C)cc3Cl)nc2)C2CC2)c1` as the compound, how does the half-life [1] read?
**A.** 5.8 h

**Q.** And the CL/F [2]?
**A.** 21 mL/min/kg

**Q.** What about the bioavailability [3] of the same compound?
**A.** 35%

**Q.** For `COCCc1ccc(Cl)c(CN(C(=O)[C@H]2CNCC[C@@H]2c2ccc(N3CC[C@@H](Oc4c(Cl)cc(C)cc4Cl)C3)nc2)C2CC2)c1`, which half-life [1] is on record?
**A.** 5.6 h

**Q.** And the CL/F [2]?
**A.** 35 mL/min/kg

**Q.** What about the bioavailability [3] of the same compound?
**A.** 8%
